From US9676782B2, “Substituted pyrazolo[1,5-a]pyrazines as negative allosteric modulators of metabotropic glutamate receptor 3” (Vanderbilt University, priority 2014, dated 2017)

Columns and labels:
rat mGlu5 = rat mGlu5 (Rattus norvegicus (Rat), UniProt P31424); experiment: mGlu5 Ca2+ flux assay; type: cell-based; conditions: for Fold selectivity (mGlu3 vs. mGlu5): ratio of rat mGlu5 EC50 or IC50 to rat mGlu3 IC50; for EC50: read-out: rat mGlu5 EC50 or IC50
Summary of the method: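 Ca2+ flux read kinetically (FDSS7000) after overnight culture at 37° C/5% CO2 and a 5 min room-temperature buffer step following dye removal. Signals expressed per well as F/F0 and normalized to peak glutamate response; EC50 fitted by free 4-parameter logistic, three replicates per concentration equally weighted.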

rat mGlu3 = rat mGlu3 (Rattus norvegicus (Rat), UniProt P31422); experiment: mGlu3 Ca2+ flux assay; type: cell-based; conditions: for IC50: NAM potency, decrease of glutamate EC80 response, >30,000 = no measurable activity, >10,000 = no plateau, read-out: rat mGlu3 IC50; for remaining activity at 30 µM: amplitude of response at 30 μM test compound as % of maximal response to glutamate, read-out: rat mGlu3 Glu max (%)
Chain of rat mGlu3 (P31422 23-879): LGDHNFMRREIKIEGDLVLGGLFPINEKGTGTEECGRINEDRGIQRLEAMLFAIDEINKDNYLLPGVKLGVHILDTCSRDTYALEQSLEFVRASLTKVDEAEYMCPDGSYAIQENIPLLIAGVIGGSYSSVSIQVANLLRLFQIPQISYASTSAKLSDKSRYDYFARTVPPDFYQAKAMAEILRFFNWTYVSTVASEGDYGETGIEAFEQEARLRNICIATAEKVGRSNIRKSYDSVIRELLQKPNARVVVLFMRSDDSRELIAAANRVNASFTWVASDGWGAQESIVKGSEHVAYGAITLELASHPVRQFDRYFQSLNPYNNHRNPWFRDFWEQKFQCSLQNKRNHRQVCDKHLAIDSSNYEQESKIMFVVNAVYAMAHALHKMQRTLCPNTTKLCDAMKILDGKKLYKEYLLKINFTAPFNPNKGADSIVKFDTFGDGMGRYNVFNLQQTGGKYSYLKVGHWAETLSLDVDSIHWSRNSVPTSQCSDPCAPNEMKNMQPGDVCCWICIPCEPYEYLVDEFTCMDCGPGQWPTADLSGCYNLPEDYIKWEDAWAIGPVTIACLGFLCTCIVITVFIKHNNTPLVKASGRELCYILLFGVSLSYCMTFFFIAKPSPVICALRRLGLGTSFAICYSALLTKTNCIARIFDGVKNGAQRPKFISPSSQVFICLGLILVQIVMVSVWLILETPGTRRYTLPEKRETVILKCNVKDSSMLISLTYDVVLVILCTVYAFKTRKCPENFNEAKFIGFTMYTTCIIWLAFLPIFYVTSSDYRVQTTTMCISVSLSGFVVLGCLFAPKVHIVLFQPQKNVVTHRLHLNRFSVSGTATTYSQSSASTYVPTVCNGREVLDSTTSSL
Summary of the method: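 This calcium mobilization assay used rat mGlu3 cells cultured overnight (37° C., 5% CO2) and read on the FDSS7000 after a 10 minute room-temperature incubation in 20 μL assay buffer. Each of 360 readings per well was divided by its initial value (F/F0). Potency came from fitting normalized responses against log concentration with an unconstrained 4 parameter logistic equation, weighting triplicate points equally.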

Chain of rat mGlu5 (P31424 21-1203): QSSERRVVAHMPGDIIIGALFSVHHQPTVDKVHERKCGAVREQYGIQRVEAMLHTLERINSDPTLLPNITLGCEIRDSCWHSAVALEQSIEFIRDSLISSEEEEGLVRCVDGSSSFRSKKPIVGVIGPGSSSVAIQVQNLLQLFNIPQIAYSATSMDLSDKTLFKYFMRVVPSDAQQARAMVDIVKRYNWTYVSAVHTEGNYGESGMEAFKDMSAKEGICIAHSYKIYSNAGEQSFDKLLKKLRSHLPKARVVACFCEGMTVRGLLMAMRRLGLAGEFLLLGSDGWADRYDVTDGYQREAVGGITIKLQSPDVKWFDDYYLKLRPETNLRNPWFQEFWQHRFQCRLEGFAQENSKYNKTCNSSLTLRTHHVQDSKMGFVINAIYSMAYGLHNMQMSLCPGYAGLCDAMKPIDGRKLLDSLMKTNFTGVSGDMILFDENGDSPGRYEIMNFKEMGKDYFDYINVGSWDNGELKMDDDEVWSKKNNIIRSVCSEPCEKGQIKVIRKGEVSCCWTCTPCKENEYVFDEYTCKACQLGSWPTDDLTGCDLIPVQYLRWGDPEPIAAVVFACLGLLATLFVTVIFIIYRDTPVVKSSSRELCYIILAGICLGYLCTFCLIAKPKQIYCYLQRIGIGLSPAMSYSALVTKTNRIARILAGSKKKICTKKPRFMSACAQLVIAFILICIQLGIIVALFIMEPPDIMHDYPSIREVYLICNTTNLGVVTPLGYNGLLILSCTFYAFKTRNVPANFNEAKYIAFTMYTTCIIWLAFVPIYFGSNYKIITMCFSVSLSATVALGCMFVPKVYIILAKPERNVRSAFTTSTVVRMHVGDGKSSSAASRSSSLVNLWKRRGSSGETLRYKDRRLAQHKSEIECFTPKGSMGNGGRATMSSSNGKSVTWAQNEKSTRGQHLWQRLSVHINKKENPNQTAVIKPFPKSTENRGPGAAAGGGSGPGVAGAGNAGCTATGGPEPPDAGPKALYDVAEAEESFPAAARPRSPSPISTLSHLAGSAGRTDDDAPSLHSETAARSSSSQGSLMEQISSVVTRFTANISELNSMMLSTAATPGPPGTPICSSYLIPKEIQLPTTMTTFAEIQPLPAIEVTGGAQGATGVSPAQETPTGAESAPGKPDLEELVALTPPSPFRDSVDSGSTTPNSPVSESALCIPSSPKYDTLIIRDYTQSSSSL

| Compound | Fold selectivity (mGlu3 vs. mGlu5) (rat mGlu5) | EC50 (rat mGlu5) [nM] | IC50 (rat mGlu3) [nM] | remaining activity at 30 µM (rat mGlu3) [%] |
| --- | --- | --- | --- | --- |
| O=C1c2cc(CNc3ccc(OC(F)F)cc3F)nn2CCN1c1cc(Cl)ccn1 [Compound 139, 5-(4-chloropyridin-2-yl)-2-(((4-(difluoromethoxy)-2-fluorophenyl)amino)methyl)-6,7-dihydropyrazolo[1,5-a]pyrazin-4(5H)-one] | >17 | > 30000 | 1760 | 2.59 |
| Cc1nc(N2CCn3nc(CNc4ccc(OC(F)F)cc4F)cc3C2=O)cs1 [Compound 140, 2-(((4-(difluoromethoxy)-2-fluorophenyl)amino)methyl)-5-(2-methylthiazol-4-yl)-6,7-dihydropyrazolo[1,5-a]pyrazin-4(5H)-one] | >48 | > 30000 | 624 | 2.43 |
| O=C1c2cc(CNc3ccc(OC(F)F)cc3F)nn2CCN1c1ccc(F)cc1F [Compound 141, 2-(((4-(difluoromethoxy)-2-fluorophenyl)amino)methyl)-5-(2,4-difluorophenyl)-6,7-dihydropyrazolo[1,5-a]pyrazin-4(5H)-one] | >42 | > 30000 | 706 | 1.87 |
| COc1cccc(N2CCn3nc(CNc4ccc(OC(F)F)cc4F)cc3C2=O)c1 [Compound 142, 2-(((4-(difluoromethoxy)-2-fluorophenyl)amino)methyl)-5-(3-methoxyphenyl)-6,7-dihydropyrazolo[1,5-a]pyrazin-4(5H)-one] | >34 | > 30000 | 863 | 1.5 |
| O=C1c2cc(CNc3ccc(OC(F)F)cc3F)nn2CCN1c1ncccc1F [Compound 143, 2-(((4-(difluoromethoxy)-2-fluorophenyl)amino)methyl)-5-(3-fluoropyridin-2-yl)-6,7-dihydropyrazolo[1,5-a]pyrazin-4(5H)-one] | >31 | > 30000 | 950 | 1.31 |
| Cc1ccc(N2CCn3nc(CNc4ccc(OC(F)F)cc4F)cc3C2=O)nc1 [Compound 144, 2-(((4-(difluoromethoxy)-2-fluorophenyl)amino)methyl)-5-(5-methylpyridin-2-yl)-6,7-dihydropyrazolo[1,5-a]pyrazin-4(5H)-one] | >17 | > 30000 | 1740 | 5.68 |
| O=C1c2cc(CNc3ccc(OC(F)F)cc3F)nn2CCN1c1ccc(F)c(F)c1 [Compound 145, 2-(((4-(difluoromethoxy)-2-fluorophenyl)amino)methyl)-5-(3,4-difluorophenyl)-6,7-dihydropyrazolo[1,5-a]pyrazin-4(5H)-one] | >37 | > 30000 | 800 | 2.55 |
| O=C1c2cc(CNc3ccc(OC(F)F)cc3F)nn2CCN1c1ccc(F)cn1 [Compound 146, 2-(((4-(difluoromethoxy)-2-fluorophenyl)amino)methyl)-5-(5-fluoropyridin-2-yl)-6,7-dihydropyrazolo[1,5-a]pyrazin-4(5H)-one] | >51 | > 30000 | 578 | 2.03 |
| COc1cc(F)cc(N2CCn3nc(CNc4ccc(OC(F)F)cc4F)cc3C2=O)c1 [Compound 147, 2-(((4-(difluoromethoxy)-2-fluorophenyl)amino)methyl)-5-(3-fluoro-5-methoxyphenyl)-6,7-dihydropyrazolo[1,5-a]pyrazin-4(5H)-one] | >23 | > 30000 | 1260 | 1.67 |
| O=C1c2cc(CNc3ccc(OC(F)F)cc3F)nn2CCN1c1ccc(Cl)cn1 [Compound 148, 5-(5-chloropyridin-2-yl)-2-(((4-(difluoromethoxy)-2-fluorophenyl)amino)methyl)-6,7-dihydropyrazolo[1,5-a]pyrazin-4(5H)-one] | >32 | > 30000 | 930 | 3.97 |
